Our source for the GI50 and TGI values is PubChem BioAssay (NCI).

Common to all, as to assay: inhibition of tumour cell growth, NCI panel, 48 h
In assay [1] the test system is MALME-3M melanoma.
The subject of assay [2] is CCRF-CEM leukemia.
The subject of assay [3] is U251 CNS.
For assay [4], the system named is SK-MEL-5 melanoma.
Assay [5] concerns MOLT-4 leukemia.
Assay [6] deals with OVCAR-5 ovarian.
Assay [7] has as its system NCI-H522 lung.
The subject of assay [8] is HCT-15 colon.
Assay [9] concerns OVCAR-4 ovarian.
Assay [10] deals with HT29 colon.

“And” between values parts separate entries of the source, which are not always exact repeats. Equal entries are not always repeated.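 Method: 48-hour compound exposure of cells in 96-well plates, five concentrations, linear interpolation of endpoints. The concentration for 50% growth inhibition is given as GI50. The concentration for full growth arrest is given as TGI.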

In the case of `CCOc1cccc(/C=N/NC(=O)C(=O)Nc2cccc(C(F)(F)F)c2)c1O`, the GI50 was 4.35 µM in [1]; 0.322 µM in assay [2]; 1.46 µM in assay [3]; 1.87 µM in assay [4]; 1.35 µM in assay [5]; 5.67 µM in [6]. The GI50 was 2.29 µM in assay [7], 0.459 µM in assay [8], 0.398 µM in [9] and 6.51 µM in assay [10]. Also, the TGI was 64.2 µM in assay [1]; 7.41 µM in assay [2]; more than 100 µM in assay [3]; 19 µM in assay [4]; 22 µM in assay [5]; more than 100 µM in assay [6]. For the same compound, the TGI in [7], in assay [8], in assay [9] and in assay [10] was more than 100 µM throughout.
In the case of `CNCCn1c(=O)c2cc(OC)c(OC)cc2c2ccc3cc4c(cc3c21)OCO4`, the GI50 is 0.172 µM in assay [1]; 0.0203 µM in assay [2]; 0.0495 µM in assay [3]; 0.0862 µM in assay [4]; 0.0227 µM in assay [5]; 0.195 µM in [6]. Moreover, the GI50 in assay [7] is 0.0548 µM; in [8], 0.175 µM; in assay [9] it was 0.175 µM; in assay [10], 0.072 µM. Besides, the TGI in assay [1] worked out at 0.812 µM; in assay [2] it was 0.952 µM; in [3] it was 1.19 µM; in assay [4], 0.199 µM; in [5], 0.211 µM; in [6] it was 2.6 µM. Besides, the TGI turned out to be 0.554 µM in assay [7], 3.06 µM in [8], 4.26 µM in assay [9] and 1.04 µM in [10].
Take `CC(CCC(=O)O)C(=O)O` (stereo not given): the TGI in assay [1], in [2], in [3], in [4], in assay [5] and in assay [6] was more than 100 µM each time. In addition, the TGI in assay [7], in assay [8], in assay [9] and in [10] was more than 100 µM in each case.
In the case of `CCCOc1ccc2nc(NC(=O)OC)[nH]c2c1`, the GI50 in [1] was 2.72 µM; in assay [2], 0.273 µM; in [3] it was 0.301 µM; in assay [4], 0.0796 µM; in assay [5] it was 0.426 µM; in assay [6], 0.441 µM. The GI50 in assay [7] is 0.235 µM; in assay [8], 0.13 µM; in [9] it was 0.6 µM; in assay [10] it was 0.174 µM. The TGI is more than 100 µM in [1]; more than 100 µM in [2]; more than 100 µM in assay [3]; 1.73 µM in [4]; more than 100 µM in assay [5]; more than 100 µM in assay [6]. For the same compound, the TGI in assay [7] is 2.28 µM; in [8] it was more than 100 µM; in assay [9], more than 100 µM; in assay [10] it was more than 100 µM.
As to `COC1OC(CO)C(O)C1N` (stereo not given), the TGI in assay [1], in [2], in assay [3], in assay [4], in assay [5] and in [6] was more than 100 µM in each case. Also, the TGI in assay [7], in assay [8], in assay [9] and in assay [10] was more than 100 µM in each case.
Consider `CS(=O)(=O)CSCSSCS(C)(=O)=O`, for which the TGI in [1] was more than 100 µM; in [2], 70.5 µM; in [3], more than 100 µM; in [4], more than 100 µM; in assay [5] it was more than 82.9 µM; in assay [6], more than 93.8 µM. The TGI in [7] was 34 µM; in assay [8], more than 84.8 µM; in assay [9], more than 100 µM; in [10], more than 100 µM.
For `COc1cc2ncnc(Nc3ccc(F)c(Cl)c3)c2cc1NC(=O)/C=C/CN1CCCCC1`, the GI50 was 1.73 µM and 1.61 µM in assay [1]; 1.01 µM and 2.03 µM in [2]; 1.46 µM and 1.87 µM in assay [3]; 1.61 µM and 1.66 µM in assay [4]; 1.41 µM and 1.59 µM in assay [5]; 1.19 µM and 1.17 µM in assay [6]. The GI50 in assay [7] was 0.0296 µM and 0.00694 µM; in [8], 1.07 µM and 1.12 µM; in [9], 1.16 µM and 1.79 µM; in [10], 1.68 µM and 2.08 µM. Besides, the TGI in [1] is 3.31 µM and 3.09 µM; in assay [2], 5.7 µM and 8 µM; in [3] it was 3.26 µM and 4.27 µM; in [4] it was 3.13 µM and 3.06 µM; in assay [5], 4.97 µM and 7.26 µM; in assay [6], 8.45 µM and > 8.15 µM. In addition, the TGI was 1.64 µM and 1.89 µM in assay [7]; 4.6 µM and 3.81 µM in assay [8]; 4.86 µM and 7.17 µM in [9]; 3.59 µM and > 7.79 µM in assay [10].
Take `OC1(c2ccccc2)OC(C#Cc2ccccc2)(c2ccccc2)c2ccccc21` (stereo not given): the TGI in assay [1] is 22.7 µM; in assay [2] it was more than 100 µM; in [3], 15.1 µM; in assay [4], 20.2 µM; in assay [5], 8.01 µM; in [6] it was 16.8 µM. Besides, the TGI was found to be 20.3 µM in [7], 13.1 µM in assay [8], 5.85 µM in assay [9] and 4.38 µM in assay [10].
In the case of `OCCNc1ncnc2c1ncn2Cc1cccc(COc2cccc(OCc3cccc(Cn4cnc5c(NCCO)ncnc54)c3)c2)c1`, the GI50 in assay [1] is 17.2 µM; in assay [2], 11.3 µM; in [3], 12.3 µM; in [4] it was 16.7 µM; in assay [5], 11.8 µM; in assay [6], 20.2 µM. The GI50 in assay [7] is 12.5 µM; in assay [8], 30.9 µM; in assay [9], 14.7 µM; in assay [10], 4.05 µM. The TGI in [1] is 38.3 µM; in assay [2], 33.1 µM; in [3], 24.7 µM; in assay [4], 31 µM; in assay [5] it was 32.4 µM; in [6], 36.8 µM. Moreover, the TGI was 31.8 µM in assay [7], more than 100 µM in assay [8], 34.2 µM in assay [9] and 16.5 µM in assay [10].
